Test results as given in patent US20210144998A1 (priority 2019, published 2021).
Where a name gives a salt, the structure may show the parent alone. Read-outs that look alike come from different tables or passages of the source.

Legend:
VisNR = details: Microsource

## O=c1[nH]cc(F)c(=O)[nH]1 [5-Fluorouracil]
LdtR; LOPAC
  activity annotation LdtR: 5-Fluorouracil (2; inactive LdtR LOPAC)

## CC[C@H]1OC(=O)[C@H](C)[C@@H](O[C@H]2C[C@@](C)(OC)[C@@H](O)[C@H](C)O2)[C@H](C)[C@@H](O[C@@H]2O[C@H](C)C[C@H](N(C)C)[C@H]2O)[C@](C)(OC)C[C@@H](C)C(=O)[C@H](C)[C@@H](O)[C@]1(C)O [CLARITHROMYCIN]
LdtR; NIHCC
  activity annotation LdtR: CLARITHROMYCIN (2; inactive LdtR & RpoH NIHCC)
RpoH; NIHCC
  activity annotation RpoH: CLARITHROMYCIN (2; inactive LdtR & RpoH NIHCC)

## O=C(O)CN(CCN(CC(=O)O)CC(=O)O)CCN(CC(=O)O)CC(=O)O [Diethylenetriaminepentaacetic acid]
LOPAC
  activity annotation, target not given: Diethylenetriaminepentaacetic acid (1; inactive LOPAC)

## CC(=O)NC[C@H]1CN(c2ccc(N3CCOCC3)c(F)c2)C(=O)O1 [LINEZOLIDE]
NIHCC
  activity annotation, target not given: LINEZOLIDE (1; inactive NIHCC)

## CCn1cc(C(=O)O)c(=O)c2cc(F)c(N3CCNC(C)C3)c(F)c21.Cl (stereo not shown) [Lomefloxacin hydrochloride]
VisNR
  activity annotation VisNR: Lomefloxacin hydrochloride (2; inactive LOPAC & VisNR Microsource)

## CCn1cc(C(=O)O)c(=O)c2cc(F)c(N3CCN(C)CC3)cc21.CS(=O)(=O)O [PEFLOXACIN MESYLATE]
NIHCC
  activity annotation, target not given: PEFLOXACIN MESYLATE (2; inactive NIHCC)

## CN1CCN(c2c(F)cc3c(=O)c(C(=O)O)cn4c3c2SCC4)CC1 [RUFLOXACIN HCl]
LdtR; NIHCC
  activity annotation LdtR: RUFLOXACIN HCl (2; inactive LdtR & RpoH NIHCC)
RpoH; NIHCC
  activity annotation RpoH: RUFLOXACIN HCl (2; inactive LdtR & RpoH NIHCC)

## NC(=O)c1ncn([C@@H]2O[C@H](CO)[C@@H](O)[C@H]2O)n1 [Ribavirin]
RpoH; Biomol FDA
  activity annotation RpoH: Ribavirin (2; inactive RpoH Biomol FDA)
